Measured values: ChEMBL document CHEMBL5214891, “The subgroup of 2'-hydroxy-flavonoids: Molecular diversity, mechanism of action, and anticancer properties” (Bioorg Med Chem, 2021)

Key:
[1] = Downregulation of PSA mRNA expression in human LNCaP cells measured after 12 hrs by RT-PCR assay; type: functional, cell-based
[2] = target: 11-beta-hydroxysteroid dehydrogenase 1 (Homo sapiens, UniProt P28845); test: Inhibition of human 11beta-HSD1 expressed in HEK-293 cells incubated for 10 mins; type: cell-based, HEK293
[3] = Dissociation constant, pKa of compound; type: physicochemical

Chain of 11-beta-hydroxysteroid dehydrogenase 1 (P28845 whole entry): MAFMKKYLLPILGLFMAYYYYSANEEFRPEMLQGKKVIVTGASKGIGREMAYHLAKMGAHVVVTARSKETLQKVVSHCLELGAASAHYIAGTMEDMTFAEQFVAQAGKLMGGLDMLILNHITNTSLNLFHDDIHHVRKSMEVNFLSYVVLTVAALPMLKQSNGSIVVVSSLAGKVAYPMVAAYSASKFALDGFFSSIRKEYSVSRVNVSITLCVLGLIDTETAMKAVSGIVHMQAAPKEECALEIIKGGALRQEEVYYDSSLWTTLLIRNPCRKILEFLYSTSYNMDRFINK

| IC50 [1] | Structure (SMILES) | IC50 [2] | pKa [3] |
| --- | --- | --- | --- |
| 18 µM | O=c1c(-c2ccc(O)cc2O)coc2cc(O[C@@H]3O[C@H](CO)[C@@H](O)[C@H](O)[C@H]3O)cc(O)c12 | – | – |
| – | O=C1CC(c2ccccc2O)Oc2ccccc21 (stereo not drawn) [2'-HYDROXY-FLAVANONE] | 10 µM | 6.67 |
